Assay results: patent US5858992A, “Non-reducing saccharides, their preparation and use” (Kabushiki Kaisha Hayashibara Seibutsu Kagaku Kenkyujo, priority 1995, dated 1999)

How the values were obtained:
Salivary amylase = target: T1, Salivary amylase (Homo sapiens, UniProt P0DUB6); experiment: in vitro
T1 sequence (P0DUB6 16-511): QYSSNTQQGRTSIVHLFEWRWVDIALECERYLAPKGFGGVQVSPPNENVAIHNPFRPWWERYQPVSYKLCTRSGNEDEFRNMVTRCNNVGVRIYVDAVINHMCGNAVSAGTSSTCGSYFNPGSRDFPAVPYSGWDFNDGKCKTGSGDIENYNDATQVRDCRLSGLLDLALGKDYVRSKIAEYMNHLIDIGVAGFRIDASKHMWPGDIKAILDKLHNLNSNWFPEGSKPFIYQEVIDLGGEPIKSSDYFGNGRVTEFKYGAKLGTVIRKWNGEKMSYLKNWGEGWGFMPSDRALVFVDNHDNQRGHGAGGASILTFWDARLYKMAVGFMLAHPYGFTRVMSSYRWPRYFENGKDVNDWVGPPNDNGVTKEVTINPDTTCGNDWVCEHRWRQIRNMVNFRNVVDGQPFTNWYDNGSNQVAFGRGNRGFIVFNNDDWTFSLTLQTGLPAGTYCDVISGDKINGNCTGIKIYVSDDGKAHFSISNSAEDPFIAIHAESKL

in vitro = details: gastric acid
Pancreatic juice amylase = target: T2, Pancreatic juice amylase (Homo sapiens, UniProt P04746); experiment: in vitro
T2 sequence (P04746 16-511): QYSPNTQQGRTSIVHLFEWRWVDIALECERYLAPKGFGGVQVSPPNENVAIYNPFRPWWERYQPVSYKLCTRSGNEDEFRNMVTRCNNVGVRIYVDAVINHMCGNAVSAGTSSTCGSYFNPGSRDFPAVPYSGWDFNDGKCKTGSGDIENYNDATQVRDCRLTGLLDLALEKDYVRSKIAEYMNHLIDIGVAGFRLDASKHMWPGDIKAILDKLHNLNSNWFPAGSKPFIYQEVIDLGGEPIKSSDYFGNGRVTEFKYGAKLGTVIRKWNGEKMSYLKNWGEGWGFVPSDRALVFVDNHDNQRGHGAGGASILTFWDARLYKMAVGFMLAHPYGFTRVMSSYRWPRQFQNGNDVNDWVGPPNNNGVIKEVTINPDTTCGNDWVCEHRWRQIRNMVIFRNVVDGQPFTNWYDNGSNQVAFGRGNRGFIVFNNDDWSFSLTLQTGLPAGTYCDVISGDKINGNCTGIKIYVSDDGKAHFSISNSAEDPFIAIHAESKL

[1] = Maillard reaction (coloration with glycine); type: physicochemical; details: 10 w/v % saccharide, one w/v % glycine, 50 mM phosphate buffer pH 7.0, 100° C. for 90 min, 1-cm light-path cell
Acute toxicity test = type: in vivo; details: oral, mice; for LD50: mouse, in vivo
Description: As a result, no mouse died even when administered with a highest possible dose. This means that the LD50 is 50 g/kg mouse or more and concludes that it is extremely low in toxicity.

[2] = tested on: Clostridium perfringens JCM 3816; type: cell-based; details: 0.5 w/v % saccharide in PYF broth, 37° C., 96 hours; free of sugar: -
[3] = tested on: Bifidobacterium longum JCM 1217; experiment: Assimilation test by intestinal microorganism; type: cell-based; details: 0.5 w/v % saccharide in PYF broth, 37° C., 96 hours; free of sugar: -
[4] = tested on: Peptostreptococcus prevotii ATCC 9321; experiment: Assimilation test by intestinal microorganism; type: cell-based; details: 0.5 w/v % saccharide in PYF broth, 37° C., 96 hours; free of sugar: -
[5] = tested on: Streptococcus sobrinus ATCC 27351; experiment: Acid formation by dental caries-inducing microorganisms; details: for pH at each fermentation time (min): living wet cells, 0.02M saccharide, Stephen buffer pH 7.0, 37° C.
[6] = tested on: Clostridium butyricum JCM 1391; type: cell-based; details: 0.5 w/v % saccharide in PYF broth, 37° C., 96 hours; free of sugar: -
[7] = tested on: Bifidobacterium infantis JCM 1222; experiment: Assimilation test by intestinal microorganism; type: cell-based; details: 0.5 w/v % saccharide in PYF broth, 37° C., 96 hours; free of sugar: -
[8] = tested on: Bacteroides distasonis JCM 5825; experiment: Assimilation test by intestinal microorganism; type: cell-based; details: 0.5 w/v % saccharide in PYF broth, 37° C., 96 hours; free of sugar: -
[9] = tested on: Lactobacillus plantarum IFO 3070; experiment: Assimilation test by intestinal microorganism; type: cell-based; details: 0.5 w/v % saccharide in PYF broth, 37° C., 96 hours; free of sugar: -
[10] = tested on: Bacteroides vulgatus JCM 5826; experiment: Assimilation test by intestinal microorganism; type: cell-based; details: 0.5 w/v % saccharide in PYF broth, 37° C., 96 hours; free of sugar: -
[11] = tested on: Clostridium ramosum JCM 1298; experiment: Assimilation test by intestinal microorganism; type: cell-based; details: 0.5 w/v % saccharide in PYF broth, 37° C., 96 hours; free of sugar: -
[12] = tested on: Streptococcus faecalis IAM 10065; experiment: Assimilation test by intestinal microorganism; type: cell-based; details: 0.5 w/v % saccharide in PYF broth, 37° C., 96 hours; free of sugar: -
[13] = tested on: Eubacterium aerofaciens ATCC 25986; experiment: Assimilation test by intestinal microorganism; type: cell-based; details: 0.5 w/v % saccharide in PYF broth, 37° C., 96 hours; free of sugar: -
[14] = tested on: Escherichia coli IFO 3301; experiment: Assimilation test by intestinal microorganism; type: cell-based; details: 0.5 w/v % saccharide in PYF broth, 37° C., 96 hours; free of sugar: -
[15] = tested on: Bacteroides uniformis JCM 5828; experiment: Assimilation test by intestinal microorganism; type: cell-based; details: 0.5 w/v % saccharide in PYF broth, 37° C., 96 hours; free of sugar: -
[16] = tested on: Bifidobacterium breve JCM 1192; experiment: Assimilation test by intestinal microorganism; type: cell-based; details: 0.5 w/v % saccharide in PYF broth, 37° C., 96 hours; free of sugar: -
[17] = tested on: Bifidobacterium adolescentis JCM 1275; experiment: Assimilation test by intestinal microorganism; type: cell-based; details: 0.5 w/v % saccharide in PYF broth, 37° C., 96 hours; free of sugar: -
[18] = tested on: Lactobacillus fermentum IFO 3959; experiment: Assimilation test by intestinal microorganism; type: cell-based; details: 0.5 w/v % saccharide in PYF broth, 37° C., 96 hours; free of sugar: -
[19] = tested on: Bifidobacterium animalis JCM 1190; experiment: Assimilation test by intestinal microorganism; type: cell-based; details: 0.5 w/v % saccharide in PYF broth, 37° C., 96 hours; free of sugar: -
[20] = tested on: Bifidobacterium bifidum JCM 1255; experiment: Assimilation test by intestinal microorganism; type: cell-based; details: 0.5 w/v % saccharide in PYF broth, 37° C., 96 hours; free of sugar: -

**Q.** Which results are given for `OC[C@H]1O[C@H](O[C@H]2[C@H](O)[C@@H](O)C(O)O[C@@H]2CO)[C@H](O)[C@@H](O)[C@@H]1O` (mixture of isomers) [Maltose, reference compound]?
**A.** metabolised (Salivary amylase): 0%; degraded (in vitro): 0%; metabolised (Pancreatic juice amylase): 0.2%

**Q.** For `OC[C@H]1O[C@H](OC[C@H]2O[C@H](OC[C@H]3O[C@H](OC[C@H]4OC(O)[C@H](O)[C@@H](O)[C@@H]4O)[C@H](O)[C@@H](O)[C@@H]3O)[C@H](O)[C@@H](O)[C@@H]2O)[C@H](O)[C@@H](O)[C@@H]1O` (stereo partly drawn) [Isomaltotetraose, isomaltotetraose, reference compound], which “Coloration degree (at a wavelength of 480 nm)” value [1] is on record?
**A.** 0.495

**Q.** With `OC[C@H]1O[C@H](OC[C@H]2O[C@H](OC[C@H]3OC(O)[C@H](O)[C@@H](O)[C@@H]3O)[C@H](O)[C@@H](O)[C@@H]2O)[C@H](O)[C@@H](O)[C@@H]1O` (stereo partly drawn) [Isomaltotriose, isomaltotriose, reference compound] as the compound, how does the “Coloration degree (at a wavelength of 480 nm)” value [1] read?
**A.** 0.642

**Q.** With `OC[C@H]1O[C@H](OC[C@H]2O[C@H](O[C@H]3O[C@H](CO)[C@@H](O)[C@H](O)[C@H]3O)[C@H](O)[C@@H](O)[C@@H]2O)[C@H](O)[C@@H](O)[C@@H]1O` [O-α-D-glucopyranosyl -(1→6)-α-D-glucopyranosyl α-D-glucopyranoside] as the compound, how does the LD50 (Acute toxicity test) read?
**A.** ≥ 50000 mg/kg

**Q.** What about the “Mortality at a highest possible dose” value (Acute toxicity test) of the same compound?
**A.** no mouse died

**Q.** And the “Judgement of assimilation (turbidity at 750 nm, ×5)” value (“Judgement of assimilation” for short) [2]?
**A.** + (0.15 or higher but less than 0.2)

**Q.** And the “Judgement of assimilation” value [3]?
**A.** +++ (0.3 or higher)

**Q.** And the “Judgement of assimilation” value [4]?
**A.** ± (0.1 or higher but less than 0.15)

**Q.** And the metabolised (Pancreatic juice amylase)?
**A.** 0.5%

**Q.** For `OC[C@H]1O[C@@](CO)(O[C@H]2O[C@H](CO)[C@@H](O)[C@H](O)[C@H]2O)[C@@H](O)[C@@H]1O` [Sucrose, reference compound], which “pH reduction / acid fermentation, in words” value [5] is on record?
**A.** rapid

**Q.** And the “pH at each fermentation time (min)” value ([5]; 0 min)?
**A.** 7.0

**Q.** What about the “pH at each fermentation time (min)” value ([5]; 5 min) of the same compound?
**A.** 4.3

**Q.** And the “pH at each fermentation time (min)” value ([5]; 15 min)?
**A.** 4.1

**Q.** What about the “pH at each fermentation time (min)” value ([5]; 30 min) of the same compound?
**A.** 4.0

**Q.** What about the “pH at each fermentation time (min)” value ([5]; 60 min) of the same compound?
**A.** 4.0

**Q.** And the “pH at each fermentation time (min)” value ([5]; 90 min)?
**A.** 4.0

**Q.** Which results are given for `O=C[C@H](O)[C@@H](O)[C@H](O)[C@H](O)CO` [glucose, reference compound]?
**A.** Judgement of assimilation (turbidity at 750 nm, ×5) [6]: +++ (0.3 or higher); Judgement of assimilation (turbidity at 750 nm, ×5) [7]: ++ (0.2 or higher but less than 0.3); Judgement of assimilation (turbidity at 750 nm, ×5) [8]: ++ (0.2 or higher but less than 0.3); Judgement of assimilation (turbidity at 750 nm, ×5) [9]: ++ (0.2 or higher but less than 0.3); Judgement of assimilation (turbidity at 750 nm, ×5) [10]: + (0.15 or higher but less than 0.2); Judgement of assimilation (turbidity at 750 nm, ×5) [11]: + (0.15 or higher but less than 0.2); Judgement of assimilation (turbidity at 750 nm, ×5) [12]: ++ (0.2 or higher but less than 0.3); Judgement of assimilation (turbidity at 750 nm, ×5) [13]: +++ (0.3 or higher); Judgement of assimilation (turbidity at 750 nm, ×5) [14]: + (0.15 or higher but less than 0.2); Judgement of assimilation (turbidity at 750 nm, ×5) [15]: ++ (0.2 or higher but less than 0.3); Judgement of assimilation (turbidity at 750 nm, ×5) [2]: +++ (0.3 or higher); Judgement of assimilation (turbidity at 750 nm, ×5) [3]: +++ (0.3 or higher); Judgement of assimilation (turbidity at 750 nm, ×5) [16]: ++ (0.2 or higher but less than 0.3); Judgement of assimilation (turbidity at 750 nm, ×5) [4]: + (0.15 or higher but less than 0.2); Judgement of assimilation (turbidity at 750 nm, ×5) [17]: +++ (0.3 or higher); Judgement of assimilation (turbidity at 750 nm, ×5) [18]: ++ (0.2 or higher but less than 0.3); Judgement of assimilation (turbidity at 750 nm, ×5) [19]: +++ (0.3 or higher); Judgement of assimilation (turbidity at 750 nm, ×5) [20]: ++ (0.2 or higher but less than 0.3)

**Q.** Which results are given for `OC[C@H]1O[C@H](OC[C@H]2O[C@H](O[C@H]3O[C@H](CO[C@H]4O[C@H](CO)[C@@H](O)[C@H](O)[C@H]4O)[C@@H](O)[C@H](O)[C@H]3O)[C@H](O)[C@@H](O)[C@@H]2O)[C@H](O)[C@@H](O)[C@@H]1O` [α-Isomaltosyl α-isomaltoside, O-α-D-glucopyranosyl -(1→6)-α-D-glucopyranosyl-O-α-D-glucopyranosyl-(1→6) -α-D-glucopyranoside]?
**A.** LD50 (Acute toxicity test): ≥ 50000 mg/kg; Judgement of assimilation (turbidity at 750 nm, ×5) [6]: +++ (0.3 or higher); Judgement of assimilation (turbidity at 750 nm, ×5) [2]: - (Less than 0.1); Judgement of assimilation (turbidity at 750 nm, ×5) [3]: +++ (0.3 or higher); Solubility in solvent (Solubility in solvent; chloroform and ethyl acetate): Insoluble; Solubility in solvent (Solubility in solvent; methanol and ethanol): Hardly soluble; Judgement of assimilation (turbidity at 750 nm, ×5) [4]: ± (0.1 or higher but less than 0.15); metabolised (Pancreatic juice amylase): 0.3%

**Q.** Which LD50 (Acute toxicity test) does the source give for `OC[C@H]1O[C@H](OC[C@H]2O[C@H](OC[C@H]3O[C@H](O[C@H]4O[C@H](CO)[C@@H](O)[C@H](O)[C@H]4O)[C@H](O)[C@@H](O)[C@@H]3O)[C@H](O)[C@@H](O)[C@@H]2O)[C@H](O)[C@@H](O)[C@@H]1O` [α-Isomaltotriosyl α-glucoside, O-α-D-glucopyranosyl-(1→6)-O-α-D-glucopyranosyl-(1→6) α-D-glucopyranosyl α-D-glucopyranoside] here?
**A.** ≥ 50000 mg/kg

**Q.** And the “Judgement of assimilation” value [6]?
**A.** +++ (0.3 or higher)

**Q.** And the “Judgement of assimilation” value [4]?
**A.** ± (0.1 or higher but less than 0.15)

**Q.** What about the metabolised (Pancreatic juice amylase) of the same compound?
**A.** 0.5%
